Assay results: patent publication US5322772A (Children's Research Institute, priority 1991, dated 1994)

Tests used:
50-58 kDa protein = assay: LH-20 binding assay with purified 50-58 kDa binding protein from JURKAT cytosol; parameters: species or system human; details: for Kd: 50-58 kDa protein from peripheral blood mononuclear leukocytes and JURKAT cytosol
Description: E. The reaction mixture, typically a 100 μl aliquot run in duplicate, is poured onto a column of convenient dimension, such as 0.8×7.0 cm of a molecular sieve matrix such as LH-20 Sephadex (Pharmacia Fine Chemicals, Piscataway, N.J.).
The S-100 fraction was further filtered (0.45 μm pore size membrane, Gelman Sciences), the filtrate (2.9 mg protein) passed through a 600×7.5 nun Bio-Sil-125 HPLC exclusion column at a flow rate of 1.0 ml/minute in 10 mM phosphate buffer, pH 6.8; protein elution was monitored at 280 nm. Fractions (1 ml) were collected and analyzed for binding of ^3 H-dihydro FK-506 using the previously described LH-20 assay, Donnelly et al., 1991, above, which is herein incorporated by reference. Specific binding was determined by assaying each fraction without (total binding) and with ([…]) an excess of unlabeled FK-506.
The 58 kDa protein was purified from 1.4×10^10 human T-cells (JURKAT). The S-100 fraction (10 ml) was centrifuged at 2500×g for 1 hour at 4° C. in a 30 kDa Centriprep™ concentrator (Amicon Corp., Danvers, Ma.). The concentrate (1 ml) was diluted with 15 ml of 10 mM phosphate buffer, pH 6.8, and concentrated down to 5 ml. This step removed proteins of less than 30 kDa, i.e., cyclophilin and FKBP, from the S-100 fraction.
[…] FK-506 and CsA drugs was refocused under the same conditions, using only the ampholytes contained in the 2.7 ml fraction (diluted to 55 ml with deionized water). Focusing was complete when a constant voltage of 2200 was reached.
The 20 fractions were assayed for drug binding as above. […] This fraction (3.02 mg in 2.7 ml) was chromatographed in a Bio-Sil-125 HPLC column at a flow rate of 1.0 ml/minute in 10 mM phosphate buffer, pH 6.8. Fractions representing proteins of 50-60 kDa were screened for binding to both FK-506 and CsA.
Binding fractions were probed and chromatographed on a Beckman TSK CM-25W Spherogel column (26×4.6 mm) at a flow rate of 0.5 ml/minute in 10 mM phosphate buffer, pH 6.8. Fractions containing binding activity were probed and used for binding assays.
The binding assay was the LH-20 assay of Example 1.
The LH binding assay was used for generating the competition curve of FIG. 4.

FKBP [1] = details: FKBP isolated from yeast, calf thymus and human T cells (JURKAT); cited from earlier work
immune responses = details: fold greater than cyclosporine A; cited from earlier work
[2] = test system: experimental immunopathies; details: rats; cited from earlier work
[3] = test system: 17 kDa (presumably cyclophilin) and 50 kDa cyclosporine A binding proteins; assay: Binding of 3H-cyclosporine A to HPLC fractions of JURKAT S-100 cytosol (LH-20 assay); parameters: species or system human; details: rapamycin at 70 nM; either protein (17 kDa, 50 kDa)
Excerpt: The experimental conditions of Example 1A were repeated, except that ^3 H-cyclosporine A and unlabeled cyclosporine A were substituted for FK-506.

FKBP [4] = target: FKBP (Homo sapiens, UniProt P62942); details: cited from earlier work
FKBP (Homo sapiens, UniProt P62942), sequence (P62942 whole entry): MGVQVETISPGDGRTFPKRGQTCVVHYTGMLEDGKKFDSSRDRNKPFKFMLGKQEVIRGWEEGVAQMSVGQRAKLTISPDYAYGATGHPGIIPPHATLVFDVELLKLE

Candida albicans = details: especially Candida albicans; cited from earlier work

Structure (SMILES) | inhibition of CsA binding (50-58 kDa protein; 50-58 kDa protein) | Kd (50-58 kDa protein) | Kd (FKBP [1]) | potency of inhibiting immune responses relative to cyclosporine A (immune responses) | effect on binding of 3H-CsA (50-58 kDa protein; RAP at 300 nM, purified 58 kDa protein) | IC50 (50-58 kDa protein; inhibition of specific binding of 3H-dihydro FK-506 to purified 58 kDa protein, read-out: B50 value) | inhibition of specific binding of 3H-dihydro FK-506 (50-58 kDa protein; purified 58 kDa protein, RAP 0.005-500 nM) | development of experimental immunopathies and formation of IgE-like antibody [2] | effect on binding of cyclosporine A [3] | inhibition of isomerase activity of FKBP (FKBP [4]) | activity against Candida species (Candida albicans)
C=CC[C@@H]1/C=C(\C)C[C@H](C)C[C@H](OC)[C@H]2O[C@@](O)(C(=O)C(=O)N3CCCC[C@H]3C(=O)O[C@H](/C(C)=C/[C@@H]3CC[C@@H](O)[C@H](OC)C3)[C@H](C)[C@@H](O)CC1=O)[C@H](C)C[C@@H]2OC [FK-506] | inhibited by FK-506 in a dose-dependent manner | 2 nM | 0.4 nM | 100-500 fold | – | – | – | – | – | – | –
CO[C@H]1C[C@@H]2CC[C@@H](C)[C@@](O)(O2)C(=O)C(=O)N2CCCC[C@H]2C(=O)O[C@H]([C@H](C)C[C@@H]2CC[C@@H](O)[C@H](OC)C2)CC(=O)[C@H](C)/C=C(\C)[C@@H](O)[C@@H](OC)C(=O)[C@H](C)C[C@H](C)/C=C/C=C/C=C/1C [RAP, Rapamycin] | – | 0.1 nM | – | – | unaffected | 0.1 nM | inhibited in a dose-dependent manner | totally prevented | did not affect | potent inhibitor | highly active
